Read-outs that look alike come from different tables or passages of the source.
What was measured:
[1] = test system: maximal electroshock (MES) seizures; test: MES test after oral administration in rats (screen and quantification); type: in vivo; conditions: for PI (TD50/ED50), MES: protective index for MES
Protocol: This screen discloses the time of onset, the approximate time of peak effect (TPE) and the duration of anticonvulsant activity or neurotoxicity.
The quantitative evaluation of the MES median effective dose (ED50) and toxic dose (TD50) was performed at previously estimated TPE—2 h.
(§1) Phase I of the in vivo studies involved three tests: MES, scPTZ and rotarod test for NT. Male albino mice (CF#1 strain, weighing 18–25 g) and male albino rats (Sprague–Dawley) were used as experimental animals. The animals were housed in metabolic cages and allowed free access to food and water. The compounds were injected intraperitoneally to mice as a suspension in 0.5 % methylcellulose/water mixture at a dose level 30, 100 or 300 mg/kg with anticonvulsant activity and neurotoxicity assessment at 0.5 and 4 h after administration. Promising derivatives from phase I underwent phase VIa in which they were administrated orally into rats at a fixed dose of 30 mg/kg for both MES and the rotarod toxicity determination at five pretreatment times: 0.25, 0.5, 1, 2, 4 h. Groups of eight mice or four rats are employed.
In the MES screen, an electrical stimulus of 0.2 s in duration (50 mA in mice and 150 mA in rats) is delivered via corneal electrodes primed with an electrolyte solution containing an anesthetic agent. The endpoint is the tonic extension of the hind limbs. […] Mice not displaying hind limb tonic extension are considered to be protected from seizures.

[2] = test system: pentylenetetrazole-induced seizures; test: scPTZ test after p.o. administration in rats (quantification); type: in vivo; conditions: for ED50: Rattus norvegicus, po, at TPE, 95 % confidence limits in parentheses
Protocol: On the basis of the preliminary data in rats, compound 20 was chosen for quantification of the pharmacological parameters (ED50 and TD50) after p.o. application. The quantitative evaluation of the MES median effective dose (ED50) and toxic dose (TD50) was performed at previously estimated TPE—2 h.
(§2) The scPTZ test utilizes a dose of pentylenetetrazole (85 mg/kg in mice) that produces clonic seizures lasting for a period of at least 5 s in 97 % (CD97) of animals tested. PTZ is administered 0.5 and 4 h after injections of tested compounds, and observation is carried out for 30 min. In the control groups, the first episode of clonic convulsions is observed between 6 and 15 min of observation. The absence of clonic convulsions in the observed time period of […] is interpreted as the compound’s ability to protect against PTZ-induced seizures.

rats (rotarod test) = test: Neurotoxicity, rotarod test after p.o. administration in rats; conditions: at TPE, 95 % confidence limits in parentheses
MES seizures = test system: MES seizures; set-up: method as in Rogawski, 2006; conditions: even at high doses, ref Rogawski, 2006; cited from earlier work
PTZ seizures = test system: PTZ seizures; set-up: method as in Rogawski, 2006; conditions: even at high doses, ref Rogawski, 2006; cited from earlier work
[3] = test system: 6-Hz psychomotor seizures; set-up: method as in Rogawski, 2006; conditions: ref Rogawski, 2006; cited from earlier work
[4] = test system: maximal electroshock (MES) seizures; test: Maximal electroshock (MES) test, i.p. administration in mice; type: in vivo; conditions: Mus musculus, ip, doses of 30, 100 or 300 mg/kg
Protocol: (§3) Considering the aforementioned facts, the profile of anticonvulsant activity of final compounds 3–24 was established in the MES and scPTZ tests, after intraperitoneal (i.p.) injection in mice at doses of 30, 100 and 300 mg/kg. An observation was carried out at two different time intervals—0.5 and 4 h. Furthermore, in addition to the primary anticonvulsant screening, the acute neurological toxicity (NT) was determined in mice by the rotarod test.
(§4) Compounds 3–24 were pharmacologically preevaluated within the Antiepileptic Drug Development (ADD) Program in Epilepsy Branch, Neurological Disorders Program, National Institute of the Neurological and Communicative Disorders and Stroke (NIH/NINDS), Rockville, MD, USA, by using procedures described elsewhere (Krall et al., [1978]; Kupferberg, [1989]).
as §1
In the MES screen, an electrical stimulus of 0.2 s in duration (50 mA in mice and 150 mA in rats) is delivered via corneal electrodes primed with an electrolyte solution containing an anesthetic agent. The endpoint is the tonic extension of the hind limbs. In the control groups, the procedures cause immediate hind limb tonic extension. Mice not displaying hind limb tonic extension are considered to be protected from seizures.

[5] = test system: pentylenetetrazole-induced seizures; test: Subcutaneous pentylenetetrazole (scPTZ) test, i.p. administration in mice; type: in vivo; conditions: Mus musculus, ip, doses of 30, 100 or 300 mg/kg
Protocol: as §3, §4, §1, §2

mice (rotarod test) = test: Neurotoxicity screening (NT), rotarod test, i.p. administration in mice; type: in vivo; conditions: male, CF#1, mouse, in vivo
Protocol: as §3, §1
The neurological toxicity test (NT) induced by a compound was detected in mice or rats using standardized rotarod test (Dunham and Miya, [1957]). Untreated control mice or rats, when placed on the rod, can maintained their equilibrium for a prolonged time period.

in vivo = conditions: male, Sprague-Dawley, rat, po

| Compound | PI (TD50/ED50), MES ([1]; p.o.) | ED50 [2] | PI (TD50/ED50), scPTZ ([2]; protective index for scPTZ) | TD50 NT (rotarod) (rats (rotarod test)) | activity against classical MES seizures (in words) (MES seizures) | activity against classical PTZ seizures (in words) (PTZ seizures) | effectiveness in the 6-Hz psychomotor seizure model (in words) [3] | minimal effective dose ([4]; 0.5 h, read-out: MES, minimum dose effective in half or more animals tested, 0.5 h) | minimal effective dose ([4]; 4 h, read-out: MES, minimum dose effective in half or more animals tested, 4 h) | minimal effective dose ([5]; 0.5 h, read-out: scPTZ, minimum dose effective in half or more animals tested, 0.5 h) | minimal effective dose ([5]; 4 h, read-out: scPTZ, minimum dose effective in half or more animals tested, 4 h) | NT (rotarod), minimum dose neurotoxic in half or more animals tested, 0.5 h (mice (rotarod test); 0.5 h) | NT (rotarod), minimum dose neurotoxic in half or more animals tested, 4 h (mice (rotarod test); 4 h) | ED50 ([1]; Rattus norvegicus, po, at TPE, 95 % confidence limits in parentheses) | MES, number of rats protected/number of rats tested, 0.25 h ([1]; p.o., 30 mg/kg, 0.25 h) | MES, number of rats protected/number of rats tested, 0.5 h ([1]; p.o., 30 mg/kg, 0.5 h) | MES, number of rats protected/number of rats tested, 1 h ([1]; p.o., 30 mg/kg, 1 h) | MES, number of rats protected/number of rats tested, 2 h ([1]; p.o., 30 mg/kg, 2 h) | MES, number of rats protected/number of rats tested, 4 h ([1]; p.o., 30 mg/kg, 4 h) | TD50 at 2 h (in vivo) |
| --- | --- | --- | --- | --- | --- | --- | --- | --- | --- | --- | --- | --- | --- | --- | --- | --- | --- | --- | --- | --- |
| CCCC(CCC)C(=O)O [Valproic acid] | 1.6 | 646 mg/kg | 1.2 | 784 (503–1176) mg/kg | – | – | – | – | – | – | – | – | – | – | – | – | – | – | – | – |
| CC[C@@H](C(N)=O)N1CCCC1=O [levetiracetam] | – | – | – | – | inactive | inactive | high effectiveness | – | – | – | – | – | – | – | – | – | – | – | – | – |
| O=C1NC(=O)C(c2ccccc2)(c2ccccc2)N1 [Phenytoin, reference compound] | >3.6 (MES) | > 500 mg/kg | – | – | – | – | – | 30 mg/kg | 30 mg/kg | > 300 mg/kg | > 300 mg/kg | 100 mg/kg | 100 mg/kg | 28.1 mg/kg | 1/4 | 4/4 | 3/4 | 3/4 | 3/4 | > 100 mg/kg |

From article PMC4491109, “Synthesis and anticonvulsant activity of new N-phenyl-2-(4-phenylpiperazin-1-yl)acetamide derivatives” (Medicinal Chemistry Research, 2015)
